Assay results published in PubChem BioAssay (NCI).
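Where inhibition never reached the appropriate level, the endpoint shown equals the highest concentration tested. Otherwise, values were interpolated linearly from a five-concentration, 48-hour dose response in 96-well plates. GI50 marks 50% less growth. At the TGI there is no net growth.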

Assays:
Test in all cases: inhibition of tumour cell growth, NCI panel, 48 h; in the data active = GI50 below about 0.43 µM; inactive = the rest
HL-60(TB) leukemia = tested on: HL-60(TB) leukemia
BT-549 breast = tested on: BT-549 breast
OVCAR-5 ovarian = tested on: OVCAR-5 ovarian
UO-31 renal = tested on: UO-31 renal
SK-MEL-28 melanoma = tested on: SK-MEL-28 melanoma
K-562 leukemia = tested on: K-562 leukemia
RXF 393 renal = tested on: RXF 393 renal
HCC-2998 colon = tested on: HCC-2998 colon
A549 NSCLC = tested on: A549 NSCLC
COLO 205 colon = tested on: COLO 205 colon
SNB-75 CNS = tested on: SNB-75 CNS
HT29 colon = tested on: HT29 colon
SN12C renal = tested on: SN12C renal
M14 melanoma = tested on: M14 melanoma
SK-MEL-5 melanoma = tested on: SK-MEL-5 melanoma
SK-OV-3 ovarian = tested on: SK-OV-3 ovarian
786-0 renal = tested on: 786-0 renal
MCF7 breast = tested on: MCF7 breast
RPMI-8226 leukemia = tested on: RPMI-8226 leukemia
SK-MEL-2 melanoma = tested on: SK-MEL-2 melanoma
CCRF-CEM leukemia = tested on: CCRF-CEM leukemia
NCI-H460 lung = tested on: NCI-H460 lung
NCI/ADR-RES ovarian = tested on: NCI/ADR-RES ovarian
T-47D breast = tested on: T-47D breast
NCI-H226 lung = tested on: NCI-H226 lung
SF-295 CNS = tested on: SF-295 CNS
NCI-H522 lung = tested on: NCI-H522 lung
PC-3 prostate = tested on: PC-3 prostate
UACC-62 melanoma = tested on: UACC-62 melanoma
NCI-H23 lung = tested on: NCI-H23 lung
OVCAR-3 ovarian = tested on: OVCAR-3 ovarian
SR leukemia = tested on: SR leukemia
HS 578T breast = tested on: HS 578T breast
U251 CNS = tested on: U251 CNS
MDA-MB-231 breast = tested on: MDA-MB-231 breast
CAKI-1 renal = tested on: CAKI-1 renal
SF-539 CNS = tested on: SF-539 CNS
OVCAR-4 ovarian = tested on: OVCAR-4 ovarian
HCT-116 colon = tested on: HCT-116 colon
MOLT-4 leukemia = tested on: MOLT-4 leukemia
HOP-92 NSCLC = tested on: HOP-92 NSCLC
OVCAR-8 ovarian = tested on: OVCAR-8 ovarian
TK-10 renal = tested on: TK-10 renal
LOX IMVI melanoma = tested on: LOX IMVI melanoma
UACC-257 melanoma = tested on: UACC-257 melanoma
HOP-62 NSCLC = tested on: HOP-62 NSCLC
ACHN renal = tested on: ACHN renal
HCT-15 colon = tested on: HCT-15 colon
DU-145 prostate = tested on: DU-145 prostate
KM12 colon = tested on: KM12 colon
MDA-MB-435 = tested on: MDA-MB-435
SF-268 CNS = tested on: SF-268 CNS
SW-620 colon = tested on: SW-620 colon
SNB-19 CNS = tested on: SNB-19 CNS
IGROV1 ovarian = tested on: IGROV1 ovarian

CC(C)N(CCCNC(=O)Nc1ccc(C(C)(C)C)cc1)C[C@H]1O[C@@H](n2ccc3c(N)ncnc32)[C@H](O)[C@@H]1O
> 100 µM: TGI (HL-60(TB) leukemia) | TGI (BT-549 breast) | TGI (OVCAR-5 ovarian) | TGI (UO-31 renal) | TGI (SK-MEL-28 melanoma) | TGI (K-562 leukemia) | TGI (RXF 393 renal) | TGI (HCC-2998 colon) | TGI (A549 NSCLC) | TGI (COLO 205 colon) | TGI (SNB-75 CNS) | TGI (HT29 colon) | TGI (SN12C renal) | TGI (M14 melanoma) | TGI (SK-MEL-5 melanoma) | TGI (SK-OV-3 ovarian) | TGI (786-0 renal) | TGI (MCF7 breast) | TGI (RPMI-8226 leukemia) | TGI (SK-MEL-2 melanoma) | TGI (CCRF-CEM leukemia) | TGI (NCI-H460 lung) | TGI (NCI/ADR-RES ovarian) | TGI (T-47D breast) | TGI (NCI-H226 lung) | TGI (SF-295 CNS) | TGI (NCI-H522 lung) | TGI (PC-3 prostate) | TGI (UACC-62 melanoma) | TGI (NCI-H23 lung) | TGI (OVCAR-3 ovarian) | TGI (SR leukemia) | TGI (HS 578T breast) | TGI (U251 CNS) | TGI (MDA-MB-231 breast) | TGI (CAKI-1 renal) | TGI (SF-539 CNS) | TGI (OVCAR-4 ovarian) | TGI (HCT-116 colon) | TGI (MOLT-4 leukemia) | TGI (HOP-92 NSCLC) | TGI (OVCAR-8 ovarian) | TGI (TK-10 renal) | TGI (LOX IMVI melanoma) | TGI (UACC-257 melanoma) | TGI (HOP-62 NSCLC) | TGI (ACHN renal) | TGI (HCT-15 colon) | TGI (DU-145 prostate) | TGI (KM12 colon) | TGI (MDA-MB-435) | TGI (SF-268 CNS) | TGI (SW-620 colon) | TGI (SNB-19 CNS) | TGI (IGROV1 ovarian)
inactive: GI50 (HL-60(TB) leukemia) > 100 µM | GI50 (BT-549 breast) > 100 µM | GI50 (OVCAR-5 ovarian) > 100 µM | GI50 (UO-31 renal) > 100 µM | GI50 (SK-MEL-28 melanoma) > 100 µM | GI50 (K-562 leukemia) > 100 µM | GI50 (RXF 393 renal) > 100 µM | GI50 (HCC-2998 colon) > 100 µM | GI50 (A549 NSCLC) > 100 µM | GI50 (COLO 205 colon) > 100 µM | GI50 (SNB-75 CNS) 26.2 µM | GI50 (HT29 colon) > 100 µM | GI50 (SN12C renal) > 100 µM | GI50 (M14 melanoma) > 100 µM | GI50 (SK-MEL-5 melanoma) > 100 µM | GI50 (SK-OV-3 ovarian) > 100 µM | GI50 (786-0 renal) > 100 µM | GI50 (MCF7 breast) > 100 µM | GI50 (RPMI-8226 leukemia) > 100 µM | GI50 (SK-MEL-2 melanoma) > 100 µM | GI50 (CCRF-CEM leukemia) > 100 µM | GI50 (NCI-H460 lung) > 100 µM | GI50 (NCI/ADR-RES ovarian) > 100 µM | GI50 (T-47D breast) > 100 µM | GI50 (NCI-H226 lung) > 100 µM | GI50 (SF-295 CNS) > 100 µM | GI50 (NCI-H522 lung) > 100 µM | GI50 (PC-3 prostate) > 100 µM | GI50 (UACC-62 melanoma) > 100 µM | GI50 (NCI-H23 lung) > 100 µM | GI50 (OVCAR-3 ovarian) > 100 µM | GI50 (SR leukemia) > 100 µM | GI50 (HS 578T breast) > 100 µM | GI50 (U251 CNS) > 100 µM | GI50 (MDA-MB-231 breast) > 100 µM | GI50 (CAKI-1 renal) > 100 µM | GI50 (SF-539 CNS) > 100 µM | GI50 (OVCAR-4 ovarian) > 100 µM | GI50 (HCT-116 colon) > 100 µM | GI50 (MOLT-4 leukemia) > 100 µM | GI50 (HOP-92 NSCLC) > 100 µM | GI50 (OVCAR-8 ovarian) > 100 µM | GI50 (TK-10 renal) > 100 µM | GI50 (LOX IMVI melanoma) > 100 µM | GI50 (UACC-257 melanoma) > 100 µM | GI50 (HOP-62 NSCLC) > 100 µM | GI50 (ACHN renal) > 100 µM | GI50 (HCT-15 colon) > 100 µM | GI50 (DU-145 prostate) > 100 µM | GI50 (KM12 colon) > 100 µM | GI50 (MDA-MB-435) > 100 µM | GI50 (SF-268 CNS) > 100 µM | GI50 (SW-620 colon) > 100 µM | GI50 (SNB-19 CNS) > 100 µM | GI50 (IGROV1 ovarian) > 100 µM
